# Test results reported in patent US20130189764A1, “SELECTIVE GROWTH MEDIA” (Oxide Limited, priority 2000, published 2013).
# How the values were obtained:
# Burkholderia cepacia = experiment: MIC on DMSal agar (Example 15); assay type: cell-based; settings: 1 strain
# Acinetobacter baumanii = experiment: MIC on DMSal agar (Example 15); assay type: cell-based; settings: 1 strain
# Description: (§1) The experiments were conducted as follows: […], on cooling (but prior to setting) filter-sterilised alaphosphin or AEP were incorporated at final concentrations of 1 mM, 2 mM, 5 mM and 10 mM, and the medium used to pour plates. Control plates were prepared using nutrient agar without alaphosphin or AEP. A single colony of the organism under test was inoculated in 10 ml of nutrient broth and incubated (without agitation) at 37° C. for 4 hours.
# Aeromonas hydrophilia = experiment: MIC on DMSal agar (Example 15); assay type: cell-based; settings: 1 strain
# Description: as §1
# Campylobacter coli = experiment: MIC on DMSal agar (Example 15); assay type: cell-based; settings: 4 strains
# Description: as §1
# Campylobacter jejuni = experiment: MIC on DMSal agar (Example 15); assay type: cell-based; settings: 4 strains
# Description: as §1
# Citrobacter freundii = experiment: MIC on DMSal agar (Example 15); assay type: cell-based; settings: 4 strains
# Description: as §1
# Cronobacter sakazakii = experiment: MIC on DMSal agar (Example 15); assay type: cell-based; settings: 1 strain
# Description: as §1
# Enterobacter aerogenes = experiment: MIC on DMSal agar (Example 15); assay type: cell-based; settings: 1 strain
# Description: as §1
# Enterobacter cloacae = experiment: MIC on DMSal agar (Example 15); assay type: cell-based; settings: 2 strains
# Description: as §1
# Enterococcus faecium = experiment: MIC on DMSal agar (Example 15); assay type: cell-based; settings: 1 strain
# Description: as §1
# Escherichia coli = experiment: MIC on DMSal agar (Example 15); assay type: cell-based; settings: 7 strains
# Description: as §1
# Escherichia hermanii = experiment: MIC on DMSal agar (Example 15); assay type: cell-based; settings: 1 strain
# Description: as §1
# Group A Streptococcus = experiment: MIC on DMSal agar (Example 15); assay type: cell-based; settings: 7 strains
# Description: as §1
# Group D Streptococcus = experiment: MIC on DMSal agar (Example 15); assay type: cell-based; settings: 2 strains
# Description: as §1
# Group F Streptococcus = experiment: MIC on DMSal agar (Example 15); assay type: cell-based; settings: 2 strains
# Description: as §1
# Hafnia alvei = experiment: MIC on DMSal agar (Example 15); assay type: cell-based; settings: 1 strain
# Description: as §1
# Klebsiella aerogenes = experiment: MIC on DMSal agar (Example 15); assay type: cell-based; settings: 1 strain
# Description: as §1
# Klebsiella pneumoniae = experiment: MIC on DMSal agar (Example 15); assay type: cell-based; settings: 2 strains
# Description: as §1
# Listeria innocua = experiment: MIC on DMSal agar (Example 15); assay type: cell-based; settings: 1 strain
# Description: as §1
# Listeria ivanovii = experiment: MIC on DMSal agar (Example 15); assay type: cell-based; settings: 1 strain
# Description: as §1
# Proteus mirabilis = experiment: MIC on DMSal agar (Example 15); assay type: cell-based; settings: 1 strain
# Description: as §1
# Proteus vulgaris = experiment: MIC on DMSal agar (Example 15); assay type: cell-based; settings: 1 strain
# Description: as §1
# Serratia marcescans = experiment: MIC on DMSal agar (Example 15); assay type: cell-based; settings: 1 strain
# Description: as §1
# Shigella = experiment: MIC on DMSal agar (Example 15); assay type: cell-based; settings: 3 strains
# Description: as §1
# Staphylococcus aureus = experiment: MIC on DMSal agar (Example 15); assay type: cell-based; settings: 14 strains
# Description: as §1
# [1] = tested on: Staphylococcus epidermidis; experiment: MIC on DMSal agar (Example 15); assay type: cell-based; settings: 3 strains
# Description: as §1
# [2] = tested on: Staphylococcus haemolyticus; experiment: MIC on DMSal agar (Example 15); assay type: cell-based; settings: 1 strain
# Description: as §1
# [3] = tested on: Staphylococcus saprophyticus; experiment: MIC on DMSal agar (Example 15); assay type: cell-based; settings: 1 strain
# Description: as §1
# Streptoccocus viridans = experiment: MIC on DMSal agar (Example 15); assay type: cell-based; settings: 1 strain
# Description: as §1
# Streptococcus agalactiae = experiment: MIC on DMSal agar (Example 15); assay type: cell-based; settings: 5 strains
# Description: as §1
# Haemophilus influenzae = experiment: MIC on DMSal agar (Example 15); assay type: cell-based; settings: 5 strains
# Salmonella = settings: 16 strains, DMSal agar
# Description: (§2) The experiments were conducted as follows: nutrient agar medium was autoclaved and, on cooling (but prior to setting) filter-sterilised alaphosphin or AEP were incorporated at final concentrations of 1 mM, 2 mM, 5 mM and 10 mM, and the medium used to pour plates. Control plates were prepared using nutrient agar without alaphosphin or AEP. A single colony of the organism under test was inoculated in 10 ml of nutrient broth and incubated (without agitation) at 37° C. for 4 hours.
# Yersinia enterocolitica = experiment: MIC on DMSal agar (Example 15); assay type: cell-based; settings: 2 strains
# Streptococcus pneumonaie = experiment: MIC on DMSal agar (Example 15); assay type: cell-based; settings: 5 strains
# E. coli strains = experiment: inhibition of E. coli strains on DMSal agar for selective growth of Salmonella (Example 16); assay type: cell-based, Escherichia coli; settings: added to DMSal, selective growth of Salmonella strains
# Description: as §2
# (§3) Trp-AEP was compared to alaphosphin (Ala-AEP) for selective growth of Salmonella strains on DMSal agar.
# [4] = tested on: Cronobacterr sakazakii 1888; experiment: MIC / growth in DMSal (Example 16); assay type: cell-based, Cronobacter sakazakii; settings: Cronobacterr sakazakii 1888, DMSal
# Description: as §2, §3
# Citrobacter freundii 370 = experiment: MIC / growth in DMSal (Example 16); assay type: cell-based; settings: Citrobacter freundii 370, DMSal
# Description: as §2, §3
# Escherichia coli 122 = experiment: MIC / growth in DMSal (Example 16); assay type: cell-based; settings: Escherichia coli 122, DMSal
# Description: as §2, §3
# Escherichia coli 199 = experiment: MIC / growth in DMSal (Example 16); assay type: cell-based; settings: Escherichia coli 199, DMSal
# Description: as §2, §3
# Escherichia coli 481 = experiment: MIC / growth in DMSal (Example 16); assay type: cell-based; settings: Escherichia coli 481, DMSal
# Description: as §2, §3
# Klebsiella aerogenes 323 = experiment: MIC / growth in DMSal (Example 16); assay type: cell-based; settings: Klebsiella aerogenes 323, DMSal
# Description: as §2, §3
# [5] = tested on: Klebsiella pneumoniae 411; experiment: MIC / growth in DMSal (Example 16); assay type: cell-based; settings: Klebsiella pneumoniae 411, DMSal
# Description: as §2, §3
# [6] = tested on: Klebsiella pneumoniae 758; experiment: MIC / growth in DMSal (Example 16); assay type: cell-based; settings: Klebsiella pneumoniae 758, DMSal
# Description: as §2, §3
# Salmonella arizonae 1200 = experiment: MIC / growth in DMSal (Example 16); assay type: cell-based; settings: Salmonella arizonae 1200, DMSal
# Description: as §2, §3
# [7] = tested on: Salmonella enteriditis 723; experiment: MIC / growth in DMSal (Example 16); assay type: cell-based; settings: Salmonella enteriditis 723, DMSal
# Description: as §2, §3
# [8] = tested on: Salmonella typhimurium 722; experiment: MIC / growth in DMSal (Example 16); assay type: cell-based; settings: Salmonella typhimurium 722, DMSal
# Description: as §2, §3
# Salmonella virchow 703 = experiment: MIC / growth in DMSal (Example 16); assay type: cell-based; settings: Salmonella virchow 703, DMSal
# Description: as §2, §3
# Serratia marcescens 217 = experiment: MIC / growth in DMSal (Example 16); assay type: cell-based; settings: Serratia marcescens 217, DMSal
# Description: as §2, §3
structure (smiles),measurement,setting,value
"CC(NC(=O)C(N)Cc1c[nH]c2ccccc12)P(=O)(O)O (stereo not shown) [Trp-AEP, tryptophan-AEP]",MIC,Burkholderia cepacia,>256 mg/L
same,MIC,Acinetobacter baumanii,>256 mg/L
same,MIC,Aeromonas hydrophilia,128 mg/L
same,MIC,Campylobacter coli,>128 mg/L
same,MIC,Campylobacter jejuni,>128 mg/L
same,MIC,Citrobacter freundii,approximately 1 μg/ml
same,MIC,Citrobacter freundii; listed as tryptophan-AEP,1 to 4 mg/L
same,MIC,Cronobacter sakazakii,approximately 1 μg/ml
same,MIC,Cronobacter sakazakii; listed as tryptophan-AEP,1 mg/L
same,MIC,Enterobacter aerogenes,1 mg/L
same,MIC,Enterobacter cloacae,4 mg/L
same,MIC,Enterococcus faecium,>256 mg/L
same,MIC,Escherichia coli,≤ 0.5 mg/L
same,MIC,Escherichia coli; listed as tryptophan-AEP,0.25 to 0.5 mg/L
same,MIC,Escherichia hermanii,0.5 mg/L
same,MIC,Group A Streptococcus,>256 mg/L
same,MIC,Group D Streptococcus,16 mg/L
same,MIC,Group F Streptococcus,>256 mg/L
same,MIC,Hafnia alvei,approximately 1 μg/ml
same,MIC,Hafnia alvei; listed as tryptophan-AEP,1 mg/L
same,MIC,Klebsiella aerogenes,8 mg/L
same,MIC,Klebsiella pneumoniae,2 to 4 mg/L
same,MIC,Listeria innocua,32 mg/L
same,MIC,Listeria ivanovii,>128 mg/L
same,MIC,Proteus mirabilis,>128 mg/L
same,MIC,Proteus vulgaris,>128 mg/L
same,MIC,Serratia marcescans,2 mg/L
same,MIC,Shigella,≤ 0.5 mg/L
same,MIC,Staphylococcus aureus,0.5 to 16 mg/L
same,MIC,[1],4 to 16 mg/L
same,MIC,[2],2 mg/L
same,MIC,[3],64 mg/L
same,MIC,Streptoccocus viridans,>256 mg/L
same,MIC,Streptococcus agalactiae,128 mg/L
same,MIC,Haemophilus influenzae,>128 mg/L
same,MIC,Salmonella,2 to 16 mg/L
same,MIC,Yersinia enterocolitica,4 to 8 mg/L
same,MIC,Streptococcus pneumonaie,>256 mg/L
same,concentration producing equivalent results to Ala-AEP at 1.5 μg/ml,E. coli strains,0.25 µg/mL
same,MIC of Trp-AEP,[4],0.125 mg/L
same,MIC of Trp-AEP,Citrobacter freundii 370,2 mg/L
same,MIC of Trp-AEP,Escherichia coli 122,0.25 mg/L
same,MIC of Trp-AEP,Escherichia coli 199,0.25 mg/L
same,MIC of Trp-AEP,Escherichia coli 481,0.064 mg/L
same,MIC of Trp-AEP,Klebsiella aerogenes 323,3 mg/L
same,MIC of Trp-AEP,[5],2 mg/L
same,MIC of Trp-AEP,[6],0.064 mg/L
same,MIC of Trp-AEP,Salmonella arizonae 1200,2 mg/L
same,MIC of Trp-AEP,[7],3 mg/L
same,MIC of Trp-AEP,[8],3 mg/L
same,MIC of Trp-AEP,Salmonella virchow 703,3 mg/L
same,MIC of Trp-AEP,Serratia marcescens 217,3 mg/L
